In data set [1] the target is T1, human M1 receptor (Homo sapiens, UniProt P11229).
T1 construct: expressed in transfected cells; host or cells: CHO cells
T1 sequence (P11229 1-460): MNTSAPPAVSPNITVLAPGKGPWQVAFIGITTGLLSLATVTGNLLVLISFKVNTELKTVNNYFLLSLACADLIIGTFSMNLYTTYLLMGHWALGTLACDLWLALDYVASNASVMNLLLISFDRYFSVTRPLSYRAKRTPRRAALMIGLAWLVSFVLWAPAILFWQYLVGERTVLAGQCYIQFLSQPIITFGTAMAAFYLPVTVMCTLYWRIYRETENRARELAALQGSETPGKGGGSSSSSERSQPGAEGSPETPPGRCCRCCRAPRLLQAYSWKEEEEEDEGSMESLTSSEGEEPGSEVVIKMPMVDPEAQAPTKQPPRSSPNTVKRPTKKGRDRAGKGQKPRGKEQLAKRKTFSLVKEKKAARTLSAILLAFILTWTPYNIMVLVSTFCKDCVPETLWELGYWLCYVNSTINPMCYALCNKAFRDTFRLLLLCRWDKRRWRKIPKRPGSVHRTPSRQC
In words: Radioligand ([3H]N-methylscopolamine) binding assay, CHO cell membranes. Particulars: 1.5 nM tritiated N-methylscopolamine, 90 minutes at 37° C.; read-out: Binding affinity (Ki) M1. The method, then: Binding affinity (Ki) of compounds was measured by inhibition of radioligand binding to membranes from CHO cells expressing human M1, M2, M3, M4 and M5 receptors. Membranes were prepared by nitrogen cavitation and differential centrifugation as previously described (Hoare et al., Mol. Pharmacol. 2003 March; 63(3): 751-65). The radioligand employed was tritiated N-methylscopolamine, used at a concentration of 1.5 nM. A dose-response of twelve concentrations of compound was used, ranging from […]. The assay buffer was 50 mM HEPES, 100 mM NaCl, 5 mM MgCl2, 1 mM ethylenediaminetetraacetic acid, pH-adjusted to pH 7.4. Membranes, radioligand and compound were incubated together for 90 minutes at 37° C., in a total volume of 150 μL in a 96-well plate. Receptor-bound radioligand was then collected by harvesting the assay over glass fiber filters pretreated with polyethylenimine to trap the cell membranes, using rapid vacuum filtration. Harvesting and radioactivity counting was conducted as previously described (see, e.g., Hoare et al., Mol. Pharmacol. 2003 63(3):751-65); Erratum at Mol. Pharmacol. 2005 July; 68(1): 260).

Data set [2] is described as follows: Rat pharmacokinetics (IV and PO). Format: in vivo, male Sprague-Dawley rats. Particulars: male, Sprague-Dawley, plasma; for Vd: read-out: Vdss; for half-life: read-out: T½ (converted); for Tmax: read-out: Tmax range. Here is the method: The pharmacokinetics of Compounds 1, 2, 3A, and 4A were assessed in male Sprague-Dawley rats following either intravenously (IV) or orally (PO) dosing. Sin-life portions of the studies were either conducted internally at Neurocrine Biosciences or contracted to Charles River Laboratories or Agilux Laboratories. All studies were performed according to good scientific principles and internal standard operating procedures (SOPs). However, the studies were exploratory in nature and were not conducted in accordance with the United States Food and Drug Administration (FDA) Good Laboratory Guidance (GLP) regulations.
Adult (8-9 weeks old) male rats were acclimated prior to dose administration. For dosing, rats were either dosed intravenously through the femoral vein or orally via oral gavage. Food and water were provided ad libitum during the acclimation period. The rats were maintained in a controlled temperature and humidity environment with a photoperiod with a 12 hour light to dark cycle. Rats were either dosed fed or fasted. In studies where the rats were fasted, rats were allowed access to food four hours post-dose.
For the IV bolus dose, compound was administered over a period of approximately 30 seconds using a 1 mL syringe via the femoral vein catheter. The IV dose was followed with a bolus of sterile saline (approximately 100 μL). For IV infusion doses, compound was administered using an IV infusion pump to deliver the total dose volume over 1 hour. Rats were connected to the infusion pump through catheter tubing that was connected to the femoral catheter prior to the infusion start. For the oral dose, compound was administered using flexible, polypropylene-shafted, silicone bulb shaped-tipped gavage (Instech Solomon plastic feeding tubes, 18 gauge×75 mm). Animals were periodically observed for eight hours following the dose administration for potential test article related effects.
Serial blood samples from IV and PO dosed rats (N=3 or 4) were collected out to 24 hours post-dose. For the time points up to 8 hours post dose, approximately 200 μL of whole blood was drawn from the jugular catheter or from the tail vein with a 1-mL syringe. The whole blood was transferred to a 600 μL Sarstedt collection tube that contained 1.2-2 mg EDTA-K3/mL of anticoagulant, gently mixed, and then centrifuged for 1.0 min at 13,000 rpm. Approximately 100 μL of plasma was aliquoted. Blood for the terminal time points at 24 hours were collected by […] with a syringe containing 1.6 mg EDTA-K3/mL of anticoagulant, transferred to an Eppendorf and immediately centrifuged for 1.0 min at 13,000 rpm. Approximately 300 μL of plasma was aliquoted. The aliquoted plasma samples were stored at −80° C. until analysis.
For IV and PO dose groups, descriptive pharmacokinetics were derived and evaluated based on the plasma concentrations from each individual rat. Pharmacokinetic parameters were determined using non-compartmental analysis (NCA) of plasma concentration-time profiles in Phoenix WinNonlin pharmacokinetic modeling software Professional (version 6.3; Pharsight Corporation). Nominal time was used for all timepoints unless otherwise indicated. Descriptive statistics (means, standard deviations and coefficient of variation) were also generated. Mean pharmacokinetic summaries of Compounds 1-4 following intravenous and PO dosing in Sprague Dawley rats were summarized in Tables 15 and 16.
Plasma samples of compounds 1, 2, 3A, and 4A were prepared by protein precipitation. Calibration standards and quality control plasma samples were prepared from the same lot of reference standard to quantify the concentration of the study samples. […]

The mark [3] stands for this setting: IV infusion (1 hr), 2 mg/kg, HCl salt.
[4] abbreviates: iv, 1 mg/kg, IV bolus, 1 mg/kg, HCl salt.
The mark [5] stands for this setting: iv, 1 mg/kg, IV bolus, HCl salt.
Setting [6] is: iv, 2 mg/kg, IV infusion (1 hr), 2 mg/kg, HCl salt.
[7] abbreviates: iv, 2 mg/kg, IV infusion (1 hr), HCl salt.
Where [8] appears, read: po, 10 mg/kg, PO 10 mg/kg, 1% Tween-80 in water (suspension).
[9] abbreviates: po, 10 mg/kg, PO 10 mg/kg, 10% PEG-400 in 0.5% MC (suspension).
The mark [10] stands for this setting: po, 10 mg/kg, PO 10 mg/kg, 10% PEG-400 in 0.5% MC in water (solution).
Setting [11] is: PO 10 mg/kg, 10% PEG-400 in 0.5% MC in water (solution).
Setting [12] is: iv, 2.5 mg/kg, IV bolus, HCl salt.
Where [13] appears, read: po, 10 mg/kg, PO 10 mg/kg, 5% Tween-80 in 0.5% (w/v) MC in water (suspension).
The mark [14] stands for this setting: po, 10 mg/kg, PO 10 mg/kg, 30% PG, 20% PEG-400, 0.5% MC in water (solution).

Molecules are shown by their SMILES. Like-named read-outs stand apart in the source and are kept apart here.

Take `C[C@@H]1CN(c2cnc(C(F)(F)F)cn2)C[C@H](C)N1C(=O)OCCC1CCN(Cc2ccccc2)CC1` [Compound 1, 2-(1-benzylpiperidin-4-yl)ethyl (2R,6S)-2,6-dimethyl-4-[5-(trifluoromethyl)pyrazin-2-yl]piperazine-1-carboxylate]: the Ki in data set [1] was not below 1000 nM. For the same molecule, the clearance stood at 40.4 mL/min/kg in data set [2] (IV bolus, 1 mg/kg, HCl salt) and 15.8 mL/min/kg in data set [2] (setting [3]). Also, the Vd in data set [2] (IV bolus, 1 mg/kg, HCl salt) was determined as 28.2 L/kg; in data set [2] (setting [3]), 12.1 L/kg. Moreover, the bioavailability in data set [2] (PO 10 mg/kg, 10% PEG-400 in 0.5% MC (suspension)) came out at 89.1%. In addition, the half-life in data set [2] (setting [4]) was 9.1 h; in data set [2] (setting [6]), 10.2 h. Moreover, the values for the AUC(0-inf) in data set [2] (setting [5]) and in data set [2] (setting [7]) were 415 ng·h/mL and 1680 ng·h/mL, respectively. In addition, the AUC(0-t) in data set [2] (setting [5]) was found to be 357 ng·h/mL; in data set [2] (setting [7]), 1780 ng·h/mL; in data set [2] (setting [8]) it was 3950 ng·h/mL; in data set [2] (setting [9]), 3180 ng·h/mL; in data set [2] (setting [10]) it was 3150 ng·h/mL. For the same molecule, the Cmax in data set [2] (setting [8]) stood at 280 ng/mL; in data set [2] (setting [9]), 164 ng/mL; in data set [2] (setting [10]) it was 264 ng/mL. Besides, the Tmax is 1 h in data set [2] (setting [8]), 2 to 7.5 h in data set [2] (setting [9]) and 0.5 to 1 h in data set [2] (setting [10]).
Consider `C[C@@H]1CN(c2cnc(C(F)(F)F)cn2)C[C@@H](C)N1C(=O)OCCC1CCN(Cc2ccccc2)CC1` [Compound 2, 2-(1-benzylpiperidin-4-yl)ethyl (2R,6R)-2,6-dimethyl-4-[5-(trifluoromethyl)pyrazin-2-yl]piperazine-1-carboxylate], for which, in data set [1], the Ki was not below 1000 nM. In data set [2] (setting [3]), the clearance turned out to be 44.9 mL/min/kg and the Vd was found to be 36 L/kg. The same molecule came in with a bioavailability in data set [2] (setting [11]) of 81.4%. For the same molecule, the half-life in data set [2] (setting [6]) was 11 h. For the same molecule, in data set [2] (setting [7]), the AUC(0-inf) was 747 ng·h/mL and the AUC(0-t) came to 613 ng·h/mL. Besides, in data set [2] (setting [10]), the AUC(0-inf) amounted to 3040 ng·h/mL, the AUC(0-t) is 2190 ng·h/mL, the highest level (Cmax) was 130 ng/mL and the Tmax lay within 2 to 7.5 h. In addition, in data set [2] (setting [10]), the half-life is 12.9 h.
Take `C[C@@H]1CN(c2ncc(C#N)cn2)C[C@H](C)N1C(=O)NCCC1CCN(Cc2ccccc2)CC1` [Compound 3A]: in data set [2] (IV bolus, 2.5 mg/kg, HCl salt), the clearance was determined as 47.5 mL/min/kg and the Vd was found to be 4.37 L/kg. For the same molecule, the bioavailability in data set [2] (PO 10 mg/kg, 30% PG, 20% PEG-400, 0.5% MC in water (solution)) was 43.7%. In addition, the half-life in data set [2] (iv, 2.5 mg/kg, IV bolus, 2.5 mg/kg, HCl salt) was 1.95 h. Further, in data set [2] (setting [12]), the AUC(0-inf) is 882 ng·h/mL and the AUC(0-t) was 854 ng·h/mL. Moreover, in data set [2] (setting [13]), the AUC(0-inf) was 1150 ng·h/mL, the AUC(0-t) is 1500 ng·h/mL, the Cmax came to 205 ng/mL and the Tmax was 0.5 to 4 h. For the same molecule, the half-life in data set [2] (setting [13]) is 3.21 h. Further, in data set [2] (setting [14]), the AUC(0-inf) was 1540 ng·h/mL, the AUC(0-t) turned out to be 1400 ng·h/mL, the Cmax turned out to be 247 ng/mL and the Tmax lay in the range of 0.5 to 2 h. Moreover, in data set [2] (setting [14]), the half-life is 3.65 h.
Take `C[C@@H]1CN(c2cnc(C(F)(F)F)cn2)C[C@@H](C)N1C(=O)NCCC1CCN(Cc2ccccc2)CC1` [Compound 4A]: in data set [2] (IV bolus, 1 mg/kg, HCl salt), the clearance turned out to be 56.6 mL/min/kg and the Vd stood at 16.1 L/kg. Besides, in data set [2] (setting [11]), the bioavailability came out at 59.2%. Besides, in data set [2] (setting [4]), the half-life is 5.01 h. Moreover, in data set [2] (setting [5]), the AUC(0-inf) turned out to be 204 ng·h/mL and the area under the curve AUC(0-t) is 288 ng·h/mL. Also, in data set [2] (setting [13]), the AUC(0-inf) amounted to 3500 ng·h/mL, the AUC(0-t) worked out at 2530 ng·h/mL, the Cmax is 231 ng/mL and the Tmax fell in the range of 1 to 8 h. In data set [2] (setting [13]), the half-life is 7.09 h. In data set [2] (setting [10]), the total exposure AUC(0-inf) was 1740 ng·h/mL, the AUC(0-t) was found to be 1700 ng·h/mL, the concentration peaked (Cmax) at 182 ng/mL and the Tmax is 0.5 to 2 h. Further, in data set [2] (setting [10]), the half-life is 4.2 h.

(Values after patent US12486250B2, “Muscarinic receptor 4 antagonists and methods of use” (Neurocrine Biosciences, Inc., priority 2019, dated 2025).)
